The target in one test is T1, AtzB_Hom_Hal (Mangrovimicrobium sediminis, UniProt A0A4Z0M5D5).
T1 sequence (A0A4Z0M5D5 1-465): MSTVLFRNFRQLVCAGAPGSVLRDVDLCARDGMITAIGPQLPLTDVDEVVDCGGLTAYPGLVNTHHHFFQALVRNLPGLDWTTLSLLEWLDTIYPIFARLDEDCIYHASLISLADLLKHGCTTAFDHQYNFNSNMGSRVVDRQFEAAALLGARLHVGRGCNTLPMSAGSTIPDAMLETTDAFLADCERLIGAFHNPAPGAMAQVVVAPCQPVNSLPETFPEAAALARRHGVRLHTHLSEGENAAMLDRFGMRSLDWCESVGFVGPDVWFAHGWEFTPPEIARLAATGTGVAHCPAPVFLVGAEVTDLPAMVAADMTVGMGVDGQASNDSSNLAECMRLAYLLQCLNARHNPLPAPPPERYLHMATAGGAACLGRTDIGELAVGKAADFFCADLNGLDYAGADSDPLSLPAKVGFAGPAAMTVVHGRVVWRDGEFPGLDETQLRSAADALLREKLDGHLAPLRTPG
In words: direct photometric steady-state assay, spectrophotometer. Format: biochemical. Conditions: 50 mM potassium phosphate pH 7.5, 25 °C.

The next test deals with T2, AtzB (Pseudomonas sp. ADP, UniProt P95442).
T2 sequence (P95442 1-481): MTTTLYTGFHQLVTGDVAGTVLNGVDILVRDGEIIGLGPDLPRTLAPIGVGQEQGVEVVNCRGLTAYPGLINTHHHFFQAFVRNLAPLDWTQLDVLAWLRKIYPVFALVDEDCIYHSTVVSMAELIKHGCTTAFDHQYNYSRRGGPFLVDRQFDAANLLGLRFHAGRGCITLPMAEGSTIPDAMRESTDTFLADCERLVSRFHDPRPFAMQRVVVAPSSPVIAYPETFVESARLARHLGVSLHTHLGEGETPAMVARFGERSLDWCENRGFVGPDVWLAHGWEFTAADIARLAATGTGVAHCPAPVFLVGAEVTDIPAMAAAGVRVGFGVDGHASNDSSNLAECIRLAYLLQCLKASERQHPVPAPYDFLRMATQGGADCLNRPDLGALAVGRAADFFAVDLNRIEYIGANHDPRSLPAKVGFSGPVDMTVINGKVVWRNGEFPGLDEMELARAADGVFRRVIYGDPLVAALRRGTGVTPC
The test is described as above. Type of test: biochemical. Conditions: 50 mM potassium phosphate pH 7.5, 25 °C.

Data on two molecules can be found in article PMC7615792 (ACS catalysis, 2023).

As for `CCNc1nc(O)nc(NC(C)C)n1` [II, hydroxyatrazine], the KM result at AtzB_Hom_Hal was “promiscuous hydroxyatrazine hydrolase activities of AtzB_Hom_Hal and AtzB_Hom_Pleo”.

In the case of `Nc1nc2[nH]cnc2c(=O)[nH]1` [guanine], the kcat/KM entry at AtzB is on record as “represents an increase of about three orders of magnitude compared to AtzB”.
